{
  "source": "patent US20060251714A1",
  "about": "“Pharmaceutical formulations of amyloid inhibiting compounds” (priority 2005, published 2006)",
  "test": "Gastrointestinal tolerability of capsules (solid dosage form)",
  "type": "in vivo",
  "conditions": "solid dosage form (capsules, Table 2)",
  "method": "Furthermore, the non-hygroscopic nature of the acid form makes it desirable as active pharmaceutical ingredient. To further protect against any possible gastrointestinal intolerance that could result from the acid form, the tablets are enteric-coated and a modified-release agent is added to control any rapid release of the drug in the stomach and the intestine, respectively.",
  "data": [
    {"smiles": "NCCCS(=O)(=O)[O-].[Na+]", "note": "[3-amino-1-propanesulfonic acid sodium salt]", "values": [
      {"measurement": "gastrointestinal symptoms (i.e. nausea and vomiting)", "result": "associated with gastrointestinal symptoms"}
    ]}
  ]
}
